This note sets out measurements from ChEMBL document CHEMBL1909046, “DrugMatrix in vitro pharmacology data”.

Experiment [1] can be described thus: DRUGMATRIX: ATPase, Na+/K+ enzyme inhibition (substrate: ATP). Particulars: Not Active = under 50% inhibition at 10 µM. In kind it is tissue-based, Sus scrofa, Heart.
A short description of experiment [2]: DRUGMATRIX: Glutamate, NMDA, Agonism radioligand binding (ligand: [3H] CGP-39653). It counts as cell membranes, Rattus norvegicus, Wistar, Cerebral cortex, Membrane. As to conditions: Not Active = under 50% inhibition at 10 µM.
A short description of experiment [3]: DRUGMATRIX: Platelet-Derived Growth Factor (PDGF) radioligand binding (ligand: [125I] PDGF). In kind it is cell-based. As to conditions: nih3t3; Not Active = under 50% inhibition at 10 µM.
Experiment [4] is described as follows: DRUGMATRIX: Interleukin IL-1 radioligand binding (ligand: [125I] interleukin 1beta). It counts as cell membranes, Membrane. Particulars: nih3t3; Not Active = under 50% inhibition at 10 µM.
The target of a further experiment is Acetylcholinesterase (Homo sapiens, UniProt P22303). In words: DRUGMATRIX: Acetylcholinesterase enzyme inhibition (substrate: acetylthiocholine). It counts as cell-based, HEK293. As to conditions: hek293; Not Active = under 50% inhibition at 10 µM.
Acetylcholinesterase, sequence (P22303 whole entry): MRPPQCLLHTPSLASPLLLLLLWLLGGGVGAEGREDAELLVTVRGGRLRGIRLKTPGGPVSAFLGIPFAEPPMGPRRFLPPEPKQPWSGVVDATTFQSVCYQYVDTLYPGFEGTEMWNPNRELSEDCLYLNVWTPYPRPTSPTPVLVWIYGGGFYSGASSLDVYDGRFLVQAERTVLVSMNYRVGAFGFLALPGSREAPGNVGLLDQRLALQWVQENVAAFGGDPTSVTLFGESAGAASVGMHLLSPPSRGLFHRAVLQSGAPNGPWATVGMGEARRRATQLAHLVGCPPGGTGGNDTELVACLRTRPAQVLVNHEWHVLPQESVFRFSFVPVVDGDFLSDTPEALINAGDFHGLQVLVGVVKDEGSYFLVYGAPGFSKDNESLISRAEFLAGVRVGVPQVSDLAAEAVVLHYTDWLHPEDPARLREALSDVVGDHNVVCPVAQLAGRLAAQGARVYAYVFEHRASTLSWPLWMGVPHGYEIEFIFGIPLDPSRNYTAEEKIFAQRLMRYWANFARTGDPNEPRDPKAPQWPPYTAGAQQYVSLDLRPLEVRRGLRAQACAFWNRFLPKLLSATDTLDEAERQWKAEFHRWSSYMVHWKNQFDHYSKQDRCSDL
For another experiment, the target named is Melanocortin receptor 5 (Homo sapiens, UniProt P33032). In kind it is cell membranes, HEK293, Membrane. Particulars: hek293. Also: in other assays of this panel Not Active means under 50% inhibition at 10 µM.
Melanocortin receptor 5, sequence (P33032 whole entry): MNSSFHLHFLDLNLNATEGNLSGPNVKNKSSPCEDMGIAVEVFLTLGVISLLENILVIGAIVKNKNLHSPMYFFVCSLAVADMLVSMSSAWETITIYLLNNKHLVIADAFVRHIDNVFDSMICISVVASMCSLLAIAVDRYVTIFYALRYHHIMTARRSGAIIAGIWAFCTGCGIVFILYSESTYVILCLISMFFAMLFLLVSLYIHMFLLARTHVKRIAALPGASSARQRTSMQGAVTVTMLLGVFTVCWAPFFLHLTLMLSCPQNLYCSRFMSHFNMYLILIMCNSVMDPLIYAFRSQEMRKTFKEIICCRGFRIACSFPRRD
Experiment [5] addresses T1, Alpha-1D adrenergic receptor (Homo sapiens, UniProt P25100).
T1 sequence (P25100 whole entry): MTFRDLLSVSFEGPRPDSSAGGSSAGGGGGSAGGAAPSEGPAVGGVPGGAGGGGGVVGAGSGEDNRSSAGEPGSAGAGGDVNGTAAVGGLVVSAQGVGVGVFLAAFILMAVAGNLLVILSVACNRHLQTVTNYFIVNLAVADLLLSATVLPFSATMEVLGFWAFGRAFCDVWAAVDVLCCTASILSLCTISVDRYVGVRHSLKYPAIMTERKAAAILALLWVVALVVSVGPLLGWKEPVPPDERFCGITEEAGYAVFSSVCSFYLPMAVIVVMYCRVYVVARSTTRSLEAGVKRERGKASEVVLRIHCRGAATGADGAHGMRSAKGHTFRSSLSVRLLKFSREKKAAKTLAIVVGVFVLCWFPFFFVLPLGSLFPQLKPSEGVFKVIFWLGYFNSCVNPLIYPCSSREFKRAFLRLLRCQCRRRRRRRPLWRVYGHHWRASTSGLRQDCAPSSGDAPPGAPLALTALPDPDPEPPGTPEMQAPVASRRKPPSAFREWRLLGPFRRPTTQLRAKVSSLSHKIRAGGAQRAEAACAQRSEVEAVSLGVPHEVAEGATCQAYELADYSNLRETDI
In kind it is cell membranes, HEK293, Membrane. Particulars: for Ki: read-out: Ki.

As a reminder, the IC50 is the concentration needed to halve the response being measured. Usually Ki stands for the equilibrium dissociation constant of an inhibitor or competing ligand from its target. Take `CCOc1nc2cccc(C(=O)O)c2n1Cc1ccc(-c2ccccc2-c2nnn[nH]2)cc1`: the IC50 entry (in experiment [1]; in experiment [2]; in experiment [3]; in experiment [4]; at Acetylcholinesterase; on Melanocortin receptor 5) was “Not Active” throughout. For the same compound, the IC50 entry in experiment [5] (hek293) is reported as “Not Active”. The inhibitory constant (Ki) result in experiment [1], in experiment [2], in experiment [3] and in experiment [4] was “Not Active” each time.

Turning to `O=C(O)CCCc1cccs1`, the IC50 entry (in experiment [1]; in experiment [2]; in experiment [3]; in experiment [4]; against Acetylcholinesterase; at Melanocortin receptor 5) was “Not Active” each time. Moreover, the IC50 entry in experiment [5] (hek293) is given as “Not Active”. Moreover, the Ki result in experiment [1], in experiment [2], in experiment [3] and in experiment [4] was “Not Active” each time.

Take `COc1ccccc1N`: the half-maximal inhibitory concentration (IC50) result (in experiment [1]; in experiment [2]; in experiment [3]; in experiment [4]; on Acetylcholinesterase; on Melanocortin receptor 5) was “Not Active” throughout. The IC50 result in experiment [5] (hek293) was “Not Active”. Moreover, the Ki result in experiment [1], in experiment [2], in experiment [3] and in experiment [4] was “Not Active” each time.

On to `O=C(c1ccccc1F)N1CCC(Cc2ccccc2)CC1`, for which the IC50 entry (in experiment [1]; in experiment [2]; in experiment [3]; in experiment [4]; at Acetylcholinesterase; against Melanocortin receptor 5) was “Not Active” each time. The IC50 result in experiment [5] (hek293) is “Not Active”. Moreover, the Ki result in experiment [1], in experiment [2], in experiment [3] and in experiment [4] was “Not Active” each time.

Take `Cc1c(O)cccc1C(=O)N[C@@H](CSc1ccccc1)[C@H](O)CN1C[C@H]2CCCC[C@H]2C[C@H]1C(=O)NC(C)(C)C`: the concentration for half-maximal inhibition (IC50) entry (in experiment [1]; in experiment [2]; in experiment [3]; in experiment [4]; at Acetylcholinesterase; against Melanocortin receptor 5) was “Not Active” in each case. The IC50 entry in experiment [5] (hek293) is given as “Not Active”. Further, the Ki result in experiment [1], in experiment [2], in experiment [3] and in experiment [4] was “Not Active” throughout.

Consider `CC(O)COC[C@H]1O[C@@H]2O[C@H]3[C@H](O)[C@@H](O)[C@@H](O[C@H]4[C@H](O)[C@@H](O)[C@@H](O[C@H]5[C@H](O)[C@@H](O)[C@@H](O[C@H]6[C@H](O)[C@@H](O)[C@@H](O[C@H]7[C@H](O)[C@@H](O)[C@@H](O[C@H]8[C@H](O)[C@@H](O)[C@@H](O[C@H]1[C@H](O)[C@H]2O)O[C@@H]8COCC(C)O)O[C@@H]7COCC(C)O)O[C@@H]6COCC(C)O)O[C@@H]5COCC(C)O)O[C@@H]4COCC(C)O)O[C@@H]3COCC(C)O` (stereo partly drawn) [2-HYDROXYPROPYL-BETA-CYCLODEXTRIN], for which the IC50 entry (in experiment [1]; in experiment [2]; in experiment [3]; in experiment [4]; against Acetylcholinesterase; at Melanocortin receptor 5) was “Not Active” in each case. Further, the concentration for half-maximal inhibition (IC50) entry in experiment [5] (hek293) is reported as “Not Active”. The Ki entry in experiment [1], in experiment [2], in experiment [3] and in experiment [4] was “Not Active” throughout.

Turning to `NC(=O)c1cccc(N)c1` [3-AMINOBENZAMIDE], the 50% inhibitory concentration (IC50) result (in experiment [1]; in experiment [2]; in experiment [3]; in experiment [4]; at Acetylcholinesterase; against Melanocortin receptor 5) was “Not Active” each time. Also, the IC50 result in experiment [5] (hek293) is “Not Active”. Besides, the Ki result in experiment [1], in experiment [2], in experiment [3] and in experiment [4] was “Not Active” each time.

Turning to `C[C@H]1O[C@H](O[C@H]2[C@H](O)[C@@H](O)[C@@H](O[C@H]3[C@H](O)[C@@H](O)C(O)O[C@@H]3CO)O[C@@H]2CO)[C@H](O)[C@@H](O)[C@@H]1N[C@H]1C=C(CO)[C@@H](O)[C@H](O)[C@H]1O` (stereo partly specified) [ACARBOSE], the 50% inhibitory concentration (IC50) entry (in experiment [1]; in experiment [2]; in experiment [3]; in experiment [4]; at Acetylcholinesterase; against Melanocortin receptor 5) was “Not Active” throughout. Besides, in experiment [5] (hek293), the IC50 result was “Not Active”. Besides, the Ki entry in experiment [1], in experiment [2], in experiment [3] and in experiment [4] was “Not Active” each time.

In the case of `CC[C@H]1[C@@H]2C[C@H]3[C@@H]4N(C)c5ccccc5[C@]45C[C@@H]([C@@H]2[C@H]5O)N3[C@@H]1O` [AJMALINE], the IC50 result (in experiment [1]; in experiment [2]; in experiment [3]; in experiment [4]; at Acetylcholinesterase; at Melanocortin receptor 5) was “Not Active” each time. Further, the IC50 result in experiment [5] (hek293) is listed as “Not Active”. Moreover, the Ki entry in experiment [1], in experiment [2], in experiment [3] and in experiment [4] was “Not Active” throughout.

Regarding `NC12CC3CC(CC(C3)C1)C2` [AMANTADINE], the IC50 result (in experiment [1]; in experiment [2]; in experiment [3]; in experiment [4]; at Acetylcholinesterase; on Melanocortin receptor 5) was “Not Active” throughout. Also, the IC50 entry in experiment [5] (hek293) is on record as “Not Active”. Besides, the Ki entry in experiment [1], in experiment [2], in experiment [3] and in experiment [4] was “Not Active” in each case.

Consider `CN1CCCC(CN2c3ccccc3Sc3ccccc32)C1` (stereo unspecified) [MEPAZINE], for which the concentration for half-maximal inhibition (IC50) result in experiment [1] was “Not Active”; in experiment [3], “Not Active”; in experiment [4], “Not Active”; against Acetylcholinesterase, “Not Active”; against Melanocortin receptor 5, “Not Active”; in experiment [5] (read-out: IC50), 0.137 µM. The Ki entry was “Not Active” in experiment [1], “Not Active” in experiment [3], “Not Active” in experiment [4] and 0.067 µM in experiment [5].

As for `CN(C)C(=O)Oc1cccc([N+](C)(C)C)c1.[Br-]` [NEOSTIGMINE BROMIDE], the IC50 entry (in experiment [1]; in experiment [2]; in experiment [3]; in experiment [4]; on Melanocortin receptor 5; in experiment [5] (hek293)) was “Not Active” in each case. Further, the Ki result in experiment [1], in experiment [2], in experiment [3] and in experiment [4] was “Not Active” throughout.

For the compound `CCN(CC)CCCC(C)Nc1c2ccc(Cl)cc2nc2ccc(OC)cc12` (stereo unspecified) [QUINACRINE], the IC50 entry was “Not Active” in experiment [1]; “Not Active” in experiment [2]; “Not Active” in experiment [3]; “Not Active” in experiment [4]; “Not Active” at Melanocortin receptor 5; 2.07 µM in experiment [5] (read-out: IC50). Also, the Ki entry was “Not Active” in experiment [1]; “Not Active” in experiment [2]; “Not Active” in experiment [3]; “Not Active” in experiment [4]; 1.02 µM in experiment [5].
